Data: US20210187130A1, “PET RADIOPHARMACEUTICALS FOR NON-INVASIVE EVALUATION OF HIF-2alpha” (THE BOARD OF REGENTS OF THE UNIVERSITY OF TEXAS SYSTEM, priority 2019, published 2021)
“Also recorded” adds a separate entry of the source.

What was measured:
ccRCC = assay: Phase 1 clinical trial in patients with ccRCC; assay type: in vivo
Text: The drug was remarkably well tolerated and a maximal tolerated dose (MTD) was not reached. […] The drug was also highly specific, and high-grade adverse effects were on-target, and expected, such as anemia (HIF-2 is known to regulate erythropoietin, and the effect could be overcome by exogenous erythropoietin administration). While the patient cohort evaluated had been extensively pretreated (typically ≥4 prior lines), activity of the inhibitor was still observed. Among 51 patients treated in the study at various dose levels, there was 1 complete response (CR), 6 partial response (PR), and 13 patients who remained on the study without progression beyond a year (FIG. 5). Overall, 42% of patients remained without progression for at least 4 months. […] Those data illustrated that even in highly pretreated RCC patients the HIF-2 Inhibitor was able to remain active.
The Phase I trial was accompanied by a companion study involving imaging and tissue acquisition.

ccRCC TGs = assay: PT2399 in RCC tumorgraft (patient-derived xenograft) platform; assay type: in vivo, mice
Procedure: (§1) This compound was evaluated in over 250 mice implanted with RCCs from 22 patients. […] This was also observed clinically.
Tumor samples collected fresh from kidney cancer surgeries were implanted orthotopically (in the kidney) of immunocompromised mice (NOD/SCID) within 3 hours. The samples were implanted without disaggregation or any additives, and it was previously shown that these tumorgrafts retained the histology, gene expression, DNA copy number alterations, mutations, and treatment responsiveness of the patient tumors. This platform of human RCC tumorgraft models was used to validate HIF-2α as a target in ccRCC (FIGS. 1 and 2). […] This same platform was used to evaluate the uptake of [^11C]PT2385 by ccRCC tumorgrafts expressing HIF-2α by PET imaging.

[1] = Tolerance (body weight) of tumorgraft-bearing mice; assay type: in vivo; details: sunitinib at doses reproducing patient exposures
Procedure: as §1

[2] = among 51 patients, various dose levels

| Compound | complete response (CR), number of patients (ccRCC; [2]) | partial response (PR), number of patients (ccRCC; [2]) | patients remaining on study without progression beyond a year (ccRCC; [2]) | serious adverse effects requiring treatment discontinuation (ccRCC; any patient) | maximal tolerated dose (MTD) (ccRCC; dose escalation and dose expansion cohorts) | dose-limiting toxicities (ccRCC; human, in vivo) | high-grade adverse effects (on-target) (ccRCC; human, in vivo) | patients without progression for at least 4 months (ccRCC; overall) [%] | activity in HIF-2α deficient tumors (ccRCC; preliminary studies of patient tumor samples) | ccRCC tumorgrafts responsive (sensitive lines) (ccRCC TGs; RCCs from 22 patients, over 250 mice) | number of intermediate tumorgraft lines (ccRCC TGs; of all 22 tumorgraft lines) | number of resistant tumorgraft lines (ccRCC TGs; of all 22 tumorgraft lines) | number of sensitive tumorgraft lines (ccRCC TGs; of all 22 tumorgraft lines) | activity compared with sunitinib (ccRCC TGs; tumorgraft growth, sunitinib standard of care at the time) | body weight change of treated mice [1] |
| --- | --- | --- | --- | --- | --- | --- | --- | --- | --- | --- | --- | --- | --- | --- | --- |
| CS(=O)(=O)c1ccc(Oc2cc(F)cc(C#N)c2)c2c1[C@H](O)C(F)(F)C2 [PT2385] | 1 | 6 | 13 | no serious adverse effects requiring treatment discontinuation | not reached | no dose-limiting toxicities | anemia | 42 | no activity | – | – | – | – | – | – |
| N#Cc1cc(F)cc(Oc2ccc(S(=O)(=O)C(F)F)c3c2CC(F)(F)[C@H]3O)c1 [PT2399] | – | – | – | – | – | – | – | – | – | approximately 50% | 5 | 7 | 10 | more active than Sunitinib; also recorded: more effective than sunitinib | did not |
| CCN(CC)CCNC(=O)c1c(C)[nH]c(/C=C2\C(=O)Nc3ccc(F)cc32)c1C [sunitinib] | – | – | – | – | – | – | – | – | – | – | – | – | – | – | lost weight |
